Where two headings read alike, the source gives them in different places.
Tests used:
Assay type in all cases: in vivo
[1] = tested on: Beet Armyworm (Spodoptera exigua, LAPHEG); test: Bioassay on Beet Armyworm (BAW), 128-well diet tray assay
Method in brief: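 Second-instar larvae, one to five per well, placed on artificial diet surface-treated with 50 μg/cm^2 compound applied in 90:10 acetone-water and dried. Held 5–7 days at 25° C., 14:10 light-dark. Percent mortality recorded per well and averaged over eight wells.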

[2] = tested on: Cabbage Looper (Trichoplusia ni, TRIPNI); test: Bioassay on Cabbage Looper (CL), 128-well diet tray assay; details: Trichoplusia ni
Method in brief: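 Diet-incorporation-free surface assay: 50 μg/cm^2 compound in acetone-water (90:10), dried on diet; 1–5 2nd-instar larvae/well; 8 wells; vented cover; 25° C., 14:10 L:D, 5–7 d; % mortality averaged over wells.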

[3] = tested on: Yellow Fever Mosquito (Aedes aegypti, AEDSAE); test: Bioassay on Yellow Fever Mosquito (YFM), 96-well plate larval assay; details: for YFM rating: Yellow Fever Mosquito, 96-well plate larval assay; for YFM (Biological Results, rating): Species YFM (Yellow Fever Mosquito)
Method: Certain molecules disclosed in this document were tested against YFM using procedures described in the following paragraph. In the reporting of the results, the “GPA & YFM Rating Table” was used (See Table Section).
Master plates containing 400 μg of a molecule dissolved in 100 μL of dimethyl sulfoxide (DMSO) (equivalent to a 4000 ppm solution) are used. A master plate of assembled molecules contains 15 μL per well. To this plate, 135 μL of a 90:10 water/acetone mixture is added to each well. A robot is programmed to dispense 15 μL aspirations from the master plate into an empty 96-well shallow plate (“daughter” plate). There are 6 reps (“daughter” plates) created per master. The created “daughter” plates are then immediately infested with YFM larvae.
The day before plates are to be treated, mosquito eggs are placed in Millipore water containing liver powder to begin hatching (4 g. into 400 mL). After the “daughter” plates are created using the robot, they are infested with 220 μL of the liver powder/larval mosquito mixture (about 1 day-old larvae). After plates are infested with mosquito larvae, a non-evaporative lid is used to cover the plate to reduce drying. Plates are held at room temperature for 3 days prior to grading. After 3 days, each well is observed and scored based on mortality. The results are indicated in the table entitled “Table ABC: Biological Results” (See Table Section).

[4] = Beet Armyworm, 128-well diet tray assay, read-out: BAW rating
[5] = Cabbage Looper, 128-well diet tray assay, read-out: CL rating
[6] = Species BAW (Beet Armyworm), read-out: BAW (Biological Results, rating)
[7] = Species CL (Cabbage Looper), read-out: CL (Biological Results, rating)

Compound	pest or weed control at 50 µg/cm2 [1, 4] [%]	pest or weed control at 50 µg/cm2 [2, 5] [%]	YFM rating [3]	pest or weed control at 50 µg/cm2 [1, 6] [%]	pest or weed control at 50 µg/cm2 [2, 7] [%]	YFM (Biological Results, rating) [3]
O=C(Nc1ncc(F)cc1F)c1cc(NC(=O)[C@H]2[C@H](c3ccc(F)c(C(F)F)c3)C2(Cl)Cl)ccc1Cl (relative stereo) [F587, 2-Chloro-5-(trans-2,2-dichloro-3-(3-(difluoromethyl)-4-fluorophenyl)cyclopropane-1-carboxamido)-N-(3,5-difluoropyridin-2-yl)benzamide]	50 to 100	50 to 100	A (80-100)	–	–	–
C#CCN(C(=O)c1cc(NC(=O)[C@H]2[C@H](c3cc(Cl)cc(Cl)c3)C2(Cl)Cl)ccc1Cl)c1ccc(F)cc1 (relative stereo) [F413, trans-2-Chloro-5-(2,2-dichloro-3-(3,5-dichlorophenyl)cyclopropane-1-carboxamido)-N-(4-fluorophenyl)-N-(prop-2-yn-1-yl)benzamide]	50 to 100	50 to 100	A (80-100)	–	–	–
C/S(=N\C#N)c1ccc(NC(=O)c2cc(NC(=O)C3C(c4cc(Cl)cc(Cl)c4)C3(Cl)Cl)ccc2Cl)cc1 (stereo not drawn) [F495, trans-2-chloro-N-(4-(N-cyano-S-methylsulfinimidoyl)phenyl)-5-(2,2-dichloro-3-(3,5-dichlorophenyl)cyclopropane-1-carboxamido)benzamide]	50 to 100	50 to 100	A (80-100)	–	–	–
O=C(Nc1ccc2[nH]c(-c3ccccc3)cc2c1)c1cc(NC(=O)[C@H]2[C@H](c3cc(Cl)cc(Cl)c3)C2(Cl)Cl)ccc1Cl (relative stereo) [F497, 2-Chloro-5-(trans)-(2,2-dichloro-3-(3,5-dichlorophenyl)cyclopropane-1-carboxamido)-N-(2-phenyl-1H-indol-5-yl)benzamide]	50 to 100	50 to 100	A (80-100)	–	–	–
CN(C(=O)c1cc(NC(=O)C2C(c3cc(Cl)cc(Cl)c3)C2(Cl)Br)ccc1Cl)c1ccc(F)cc1 (stereo not drawn) [F167, 5-(trans)-2-Bromo-2-chloro-3-(3,5-dichlorophenyl)cyclopropanecarboxamido)-2-chloro-N-(4-fluorophenyl)-N-methylbenzamide]	–	–	–	50 to 100	50 to 100	B (More than 0-Less than 80)
O=C(Nc1ccc(F)cc1F)c1cc(NC(=O)[C@H]2[C@H](c3ccc(C(F)(F)F)c(Cl)c3)C2(Cl)Cl)ccc1Cl (relative stereo) [F367, 2-Chloro-5-(trans)-(2,2-dichloro-3-(3-chloro-4-(trifluoromethyl)phenyl)cyclopropane-1-carboxamido)-N-(2,4-difluorophenyl)benzamide]	–	–	–	50 to 100	50 to 100	A (80-100)
O=C(Nc1ccc(F)cc1)c1cc(NC(=O)[C@H]2[C@H](c3cc(Cl)cc(Cl)c3)C2(Cl)Cl)cc(Cl)c1Cl (relative stereo) [F216, trans-2,3-Dichloro-5-(2,2-dichloro-3-(3,5-dichlorophenyl)cyclopropane-1-carboxamido)-N-(4-fluorophenyl)benzamide]	–	–	–	50 to 100	50 to 100	B (More than 0-Less than 80)
O=C(Nc1ccc(F)cc1F)c1cc(NC(=O)[C@H]2[C@H](c3ccc(C(F)(F)F)c(Br)c3)C2(Cl)Cl)ccc1Cl (relative stereo) [F365, 5-(trans)-(3-(3-Bromo-4-(trifluoromethyl)phenyl)-2,2-dichlorocyclopropane-1-carboxamido)-2-chloro-N-(2,4-difluorophenyl)benzamide]	–	–	–	50 to 100	50 to 100	A (80-100)
O=C(Nc1cccc2cc[nH]c12)c1cc(NC(=O)[C@H]2[C@H](c3cc(Cl)cc(Cl)c3)C2(Cl)Cl)ccc1Cl (relative stereo) [F529, 2-Chloro-5-(trans)-(2,2-dichloro-3-(3,5-dichlorophenyl)cyclopropane-1-carboxamido)-N-(1H-indol-7-yl)benzamide]	50 to 100	50 to 100	A (80-100)	–	–	–
Cl.Nc1ccc(NC(=O)c2cc(NC(=O)[C@H]3[C@H](c4cc(Cl)cc(Cl)c4)C3(Cl)Cl)ccc2Cl)cc1 (relative stereo) [PF21, trans-N-(4-aminophenyl)-2-chloro-5-(2,2-dichloro-3-(3,5-dichlorophenyl)cyclopropane-1-carboxamido)benzamide hydrochloride]	50 to 100	50 to 100	A (80-100)	–	–	–
CN(C(=O)c1cc(NC(=O)[C@H]2[C@H](c3cc(Br)cc(Br)c3)C2(Cl)Cl)ccc1Cl)c1ccc(F)cc1 (relative stereo) [F91, trans-2-Chloro-5-(2,2-dichloro-3-(3,5-dibromophenyl)cyclopropane-1-carboxamido)-N-(4-fluorophenyl)-N-methylbenzamide]	–	–	–	50 to 100	50 to 100	B (More than 0-Less than 80)
O=C(Nc1c(F)cccc1F)c1cc(NC(=O)[C@H]2[C@H](c3cc(Cl)cc(Br)c3)C2(Cl)Cl)ccc1Cl (relative stereo) [F164, trans-5-(3-(3-Bromo-5-chlorophenyl)-2,2-dichlorocyclopropane-1-carboxamido)-2-chloro-N-(2,6-difluorophenyl)benzamide]	–	–	–	50 to 100	50 to 100	A (80-100)
COc1ccc(NC(=O)c2cc(NC(=O)[C@H]3[C@H](c4cc(Cl)cc(Cl)c4)C3(Cl)Cl)ccc2Cl)cc1N (relative stereo) [F199, trans-N-(3-Amino-4-methoxyphenyl)-2-chloro-5-(2,2-dichloro-3-(3,5-dichlorophenyl)cyclopropane-1-carboxamido)benzamide]	–	–	–	50 to 100	50 to 100	A (80-100)
O=C(Nc1ncc(F)cc1F)c1cc(NC(=O)[C@H]2[C@H](c3cc(Cl)c(Cl)c(Cl)c3)C2(Cl)Cl)ccc1Cl [F311, 2-Chloro-5-((1R,3R)-2,2-dichloro-3-(3,4,5-trichlorophenyl)cyclopropane-1-carboxamido)-N-(3,5-difluoropyridin-2-yl)benzamide]	–	–	–	50 to 100	50 to 100	A (80-100)
O=C(Nc1cc2cc[nH]c2cc1F)c1cc(NC(=O)[C@H]2[C@H](c3cc(Cl)cc(Cl)c3)C2(Cl)Cl)ccc1Cl (relative stereo) [F527, 2-Chloro-5-(trans)-(2,2-dichloro-3-(3,5-dichlorophenyl)cyclopropane-1-carboxamido)-N-(6-fluoro-1H-indol-5-yl)benzamide]	50 to 100	50 to 100	A (80-100)	–	–	–
O=C(Nc1ccc(Cl)nn1)c1cc(NC(=O)[C@H]2[C@H](c3cc(Cl)cc(Cl)c3)C2(Cl)Cl)ccc1Cl (relative stereo) [PF148, trans-2-Chloro-N-(6-chloropyridazin-3-yl)-5-(2,2-dichloro-3-(3,5-dichlorophenyl)cyclopropane-1-carboxamido)benzamide]	–	–	A (80-100)	–	–	–
O=C(Nc1ncc(F)cc1F)c1cc(NC(=O)[C@H]2[C@H](c3cc(Cl)cc(Cl)c3)C2(Cl)Cl)ccc1Cl [F309, 2-Chloro-5-((1R,3R)-2,2-dichloro-3-(3,5-dichlorophenyl)cyclopropane-1-carboxamido)-N-(3,5-difluoropyridin-2-yl)benzamide]	–	–	–	–	–	A (80-100)
O=C(Nc1ccc(F)cc1)c1cc(NC(=O)[C@H]2[C@H](c3cc(Cl)cc(Cl)c3)C2(Cl)Cl)c(Cl)cc1Cl (relative stereo) [F250, trans-2,4-Dichloro-5-(2,2-dichloro-3-(3,5-dichlorophenyl)cyclopropane-1-carboxamido)-N-(4-fluorophenyl)benzamide]	–	–	–	0 to 50	–	B (More than 0-Less than 80)
O=C(Nc1ccc(F)cc1F)c1cc(NC(=O)C2C(c3cc(F)c(F)c(F)c3)C2(Cl)Cl)ccc1Cl (stereo not drawn) [F582, 2-Chloro-5-cis-(2,2-dichloro-3-(3,4,5-trifluorophenyl)cyclopropane-1-carboxamido)-N-(2,4-difluorophenyl)benzamide]	–	–	A (80-100)	–	–	–
N#Cc1ccc(NC(=O)c2cc(NC(=O)C3C(c4cc(Cl)cc(Cl)c4)C3(Cl)Cl)ccc2Cl)cc1Cl (stereo not drawn) [PF120, 2-Chloro-N-(3-chloro-4-cyanophenyl)-5-(trans)-2,2-dichloro-3-(3,5-dichlorophenyl)cyclopropane-1-carboxamido)benzamide]	–	–	A (80-100)	–	–	–
